Earlier results as cited in patent US20060159724A1, “Nutritional supplement for the management of weight” (priority 2000, published 2006).
Read-outs that look alike come from different tables or passages of the source.

Assays:
[1] = area under glycemic response curve, 2-hour period after 50 g carbohydrate, divided by standard (white bread or glucose)
[2] = first 6-week period, no dietary restrictions

N[C@@H](Cc1c[nH]c2ccc(O)cc12)C(=O)O [5-HTP, 5-hydroxytryptophan]
decrease in carbohydrate intake (obese subjects; [2]): about 50% | subjects with early satiety (obese subjects; [2]): 100% | weight loss (obese subjects; obese subjects, 900 mg 5-HTP three times a day 30 minutes before meals, two 6-week periods, p<0.02 vs control arm): 5% | subjects with early satiety (obese subjects; second 6-week period, energy-restricted diet of 1,200 kcal): 90%

O=C(CO)[C@@H](O)[C@H](O)[C@H](O)CO [Fructose, fructose]
glycemic index (GI) [1]: 32
